From paper PMC7105311, “Structure and function of Bs164 β-mannosidase from Bacteroides salyersiae the founding member of glycoside hydrolase family GH164” (The Journal of Biological Chemistry, 2019)
Read-outs that look alike come from different tables or passages of the source.

Biological target: T1, Bs164 (Bacteroides salyersiae, UniProt I9SUA3)
T1 construct: gene HMPREF1071_03408; tag cut by 3C protease for kinetics, His6-tagged for crystals
T1 sequence (I9SUA3 22-673): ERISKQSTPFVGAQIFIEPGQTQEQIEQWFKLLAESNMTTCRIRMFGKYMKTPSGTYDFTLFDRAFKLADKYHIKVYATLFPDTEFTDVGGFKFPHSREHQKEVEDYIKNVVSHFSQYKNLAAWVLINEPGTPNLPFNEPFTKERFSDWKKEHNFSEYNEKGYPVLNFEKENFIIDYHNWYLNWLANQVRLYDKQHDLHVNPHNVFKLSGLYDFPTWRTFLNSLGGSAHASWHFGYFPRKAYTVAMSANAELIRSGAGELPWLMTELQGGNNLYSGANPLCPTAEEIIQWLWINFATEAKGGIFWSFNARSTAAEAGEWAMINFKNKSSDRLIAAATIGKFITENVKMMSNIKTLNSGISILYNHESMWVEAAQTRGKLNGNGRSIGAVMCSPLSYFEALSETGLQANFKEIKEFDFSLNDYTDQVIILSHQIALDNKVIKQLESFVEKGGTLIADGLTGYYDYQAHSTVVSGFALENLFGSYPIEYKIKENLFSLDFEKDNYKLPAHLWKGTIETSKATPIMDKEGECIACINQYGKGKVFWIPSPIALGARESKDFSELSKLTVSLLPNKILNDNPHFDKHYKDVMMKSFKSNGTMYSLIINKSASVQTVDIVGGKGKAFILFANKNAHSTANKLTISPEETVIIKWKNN
Assay: inhibition of pNP β-Man hydrolysis, absorbance, competitive model fit
Format: biochemical
Text: inhibition of pNP β-Man hydrolysis, absorbance, competitive model fit on Bs164 | Mannoimidazole and noeuromycin act as competitive inhibitors of Bs164 with inhibition constants (Ki)

SMILES	Ki [µM]	Ki (competitive, substrate pNP β-Man, 80 mM MES pH 5.5, 160 mM NaCl, 25 °C, crystal structure 2.06 Å, -1 subsite) [µM]
OC[C@@H]1[C@@H](O)[C@H](O)[C@H](O)c2nccn21 [mannoimidazole]	470 ± 60	–
OC[C@H]1CN[C@@H](O)[C@@H](O)[C@@H]1O [noeuromycin]	–	0.34 ± 0.04
